Laboratory results published in ChEMBL document CHEMBL5715949, “Discovery of a selective irreversible BMX inhibitor for prostate cancer” (ACS Chem Biol, 2013).
The source made the active and inactive calls. The rule behind the calls is not given here.

Tests used:
[1] = target: Tyrosine-protein kinase Yes (Homo sapiens) (UniProt P07947); assay: Inhibition of YES (unknown origin) assessed as remaining activity at 1 uM by Kinome scan method relative to control
[2] = target: Platelet-derived growth factor receptor alpha (Homo sapiens) (UniProt P16234); assay: Inhibition of PDGFRalpha (unknown origin) assessed as remaining activity at 1 uM by Kinome scan method relative to control
RV-1 [3] = assay: Antiproliferative activity against human RV-1 cells assessed as reduction in cell viability at 500 to 2500 nM incubated for 5 days in presence of <25 nM MK2206 by CellTiter-Glo assay; type: functional, cell-based; settings: dose 500-2500 nM, time 5.0 day
[4] = target: TGF-beta receptor type-1 (Homo sapiens) (UniProt P36897); assay: Inhibition of TGFBR1 (unknown origin) assessed as remaining activity at 1 uM by Kinome scan method relative to control
[5] = test system: Mast/stem cell growth factor receptor Kit (Homo sapiens), P10721 [D816H]; assay: Inhibition of KIT D816H mutant (unknown origin) assessed as remaining activity at 1 uM by Kinome scan method relative to control
[6] = target: Tyrosine-protein kinase ZAP-70 (Homo sapiens) (UniProt P43403); assay: Inhibition of ZAP70 (unknown origin) assessed as remaining activity at 1 uM by Kinome scan method relative to control
RV-1 [7] = assay: Antiproliferative activity against human RV-1 cells assessed as reduction in cell viability at 500 to 2500 nM incubated for 5 days in presence of GDC0941 by CellTiter-Glo assay; type: functional, cell-based; settings: dose 500-2500 nM, time 5.0 day
[8] = target: AP2-associated protein kinase 1 (Homo sapiens) (UniProt Q2M2I8); assay: Inhibition of AAK1 (unknown origin) assessed as remaining activity at 1 uM by Kinome scan method relative to control
[9] = target: Serine/threonine-protein kinase 16 (Homo sapiens) (UniProt O75716); assay: Inhibition of STK16 (unknown origin) assessed as remaining activity at 1 uM by Kinome scan method relative to control
[10] = target: Insulin receptor-related protein (Homo sapiens) (UniProt P14616); assay: Inhibition of INSRR (unknown origin) assessed as remaining activity at 1 uM by Kinome scan method relative to control
[11] = target: Serine/threonine-protein kinase Nek2 (Homo sapiens) (UniProt P51955); assay: Inhibition of NEK2 (unknown origin) assessed as remaining activity at 1 uM by Kinome scan method relative to control
[12] = target: Ephrin type-B receptor 3 (Homo sapiens) (UniProt P54753); assay: Inhibition of EPHB3 (unknown origin) assessed as remaining activity at 1 uM by Kinome scan method relative to control
[13] = target: Protein kinase C iota type (Homo sapiens) (UniProt P41743); assay: Inhibition of PRKCI (unknown origin) assessed as remaining activity at 1 uM by Kinome scan method relative to control
[14] = target: Serine/threonine-protein kinase 4 (Homo sapiens) (UniProt Q13043); assay: Inhibition of MST1 (unknown origin) assessed as remaining activity at 1 uM by Kinome scan method relative to control
[15] = target: Serine/threonine-protein kinase PAK 1 (Homo sapiens) (UniProt Q13153); assay: Inhibition of PAK1 (unknown origin) assessed as remaining activity at 1 uM by Kinome scan method relative to control
[16] = target: Serine/threonine-protein kinase tousled-like 1 (Homo sapiens) (UniProt Q9UKI8); assay: Inhibition of TLK1 (unknown origin) assessed as remaining activity at 1 uM by Kinome scan method relative to control
[17] = target: Mitogen-activated protein kinase kinase kinase 20 (Homo sapiens) (UniProt Q9NYL2); assay: Inhibition of ZAK (unknown origin) assessed as remaining activity at 1 uM by Kinome scan method relative to control
[18] = target: Protein kinase C eta type (Homo sapiens) (UniProt P24723); assay: Inhibition of PRKCH (unknown origin) assessed as remaining activity at 1 uM by Kinome scan method relative to control
[19] = target: Death-associated protein kinase 1 (Homo sapiens) (UniProt P53355); assay: Inhibition of DAPK1 (unknown origin) assessed as remaining activity at 1 uM by Kinome scan method relative to control
RV-1 [20] = assay: Antiproliferative activity against human RV-1 cells assessed as reduction in cell viability at 500 to 2500 nM incubated for 5 days in presence of AZD8055 by CellTiter-Glo assay; type: functional, cell-based; settings: dose 500-2500 nM, time 5.0 day
[21] = target: Bone morphogenetic protein receptor type-2 (Homo sapiens) (UniProt Q13873); assay: Inhibition of BMPR2 (unknown origin) assessed as remaining activity at 1 uM by Kinome scan method relative to control
[22] = target: MAP/microtubule affinity-regulating kinase 3 (Homo sapiens) (UniProt P27448); assay: Inhibition of MARK3 (unknown origin) assessed as remaining activity at 1 uM by Kinome scan method relative to control
[23] = Down regulation of BMX protein expression in human RV-1 cells expressing wild type BMX assessed protein expression level at 2.5 uM pre incubated for 4 hrs followed by compound wash out and additon of CHX and measured after 24 hrs by immunoblot analysis (reference value: 0.98 to 1.01); type: functional
[24] = target: BMP-2-inducible protein kinase (Homo sapiens) (UniProt Q9NSY1); assay: Inhibition of BIKE (unknown origin) assessed as remaining activity at 1 uM by Kinome scan method relative to control
RV-1 [25] = assay: Antiproliferative activity against human RV-1 cells assessed as reduction in cell viability at 500 to 2500 nM incubated for 5 days in presence of MK2206 by CellTiter-Glo assay; type: functional, cell-based; settings: dose 500-2500 nM, time 5.0 day
[26] = target: Tyrosine-protein kinase Lyn (Homo sapiens) (UniProt P07948); assay: Inhibition of LYN (unknown origin) assessed as remaining activity at 1 uM by Kinome scan method relative to control
RV-1 [27] = assay: Antiproliferative activity against human RV-1 cells assessed as reduction in cell viability at 500 to 2500 nM incubated for 5 days in presence of gefitinib by CellTiter-Glo assay; type: functional, cell-based; settings: dose 500-2500 nM, time 5.0 day
[28] = target: Bone morphogenetic protein receptor type-1A (Homo sapiens) (UniProt P36894); assay: Inhibition of BMPR1A (unknown origin) assessed as remaining activity at 1 uM by Kinome scan method relative to control
[29] = target: Focal adhesion kinase 1 (Homo sapiens) (UniProt Q05397); assay: Inhibition of FAK (unknown origin) assessed as remaining activity at 1 uM by Kinome scan method relative to control
[30] = target: Phosphatidylinositol 4-kinase beta (Homo sapiens) (UniProt Q9UBF8); assay: Inhibition of PIK4CB (unknown origin) assessed as remaining activity at 1 uM by Kinome scan method relative to control
[31] = target: Mitogen-activated protein kinase kinase kinase 11 (Homo sapiens) (UniProt Q16584); assay: Inhibition of MLK3 (unknown origin) assessed as remaining activity at 1 uM by Kinome scan method relative to control
[32] = target: Casein kinase II subunit alpha (Homo sapiens) (UniProt P68400); assay: Inhibition of CSNK2A1 (unknown origin) assessed as remaining activity at 1 uM by Kinome scan method relative to control

Chain of TGF-beta receptor type-1 (Homo sapiens) (P36897 whole entry): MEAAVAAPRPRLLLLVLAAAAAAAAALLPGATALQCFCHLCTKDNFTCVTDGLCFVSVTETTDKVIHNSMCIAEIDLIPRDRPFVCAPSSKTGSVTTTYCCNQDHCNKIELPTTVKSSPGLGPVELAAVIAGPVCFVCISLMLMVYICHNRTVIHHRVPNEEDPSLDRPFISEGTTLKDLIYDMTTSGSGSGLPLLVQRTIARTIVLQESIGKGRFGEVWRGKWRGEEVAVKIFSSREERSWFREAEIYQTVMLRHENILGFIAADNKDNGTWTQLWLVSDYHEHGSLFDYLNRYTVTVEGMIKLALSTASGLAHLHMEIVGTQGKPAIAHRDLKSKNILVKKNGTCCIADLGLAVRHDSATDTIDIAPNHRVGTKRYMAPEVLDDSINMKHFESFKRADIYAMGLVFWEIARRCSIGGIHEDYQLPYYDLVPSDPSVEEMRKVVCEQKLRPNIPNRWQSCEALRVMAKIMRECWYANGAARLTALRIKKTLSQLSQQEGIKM
Chain of Serine/threonine-protein kinase 4 (Homo sapiens) (Q13043 whole entry): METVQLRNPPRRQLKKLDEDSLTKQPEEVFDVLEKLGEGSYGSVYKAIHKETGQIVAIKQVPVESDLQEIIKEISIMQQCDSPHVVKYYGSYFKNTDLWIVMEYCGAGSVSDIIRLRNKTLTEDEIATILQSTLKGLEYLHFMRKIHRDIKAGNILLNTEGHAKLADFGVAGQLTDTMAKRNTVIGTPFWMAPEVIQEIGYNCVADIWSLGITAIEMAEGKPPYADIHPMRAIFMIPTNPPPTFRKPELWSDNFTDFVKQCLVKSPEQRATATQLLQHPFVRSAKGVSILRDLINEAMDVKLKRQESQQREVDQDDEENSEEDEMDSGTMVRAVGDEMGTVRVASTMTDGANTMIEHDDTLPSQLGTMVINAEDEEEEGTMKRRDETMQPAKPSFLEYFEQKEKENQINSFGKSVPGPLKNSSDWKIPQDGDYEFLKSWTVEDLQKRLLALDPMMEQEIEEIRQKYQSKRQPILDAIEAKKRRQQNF
Chain of Focal adhesion kinase 1 (Homo sapiens) (Q05397 2-1052 limits assumed): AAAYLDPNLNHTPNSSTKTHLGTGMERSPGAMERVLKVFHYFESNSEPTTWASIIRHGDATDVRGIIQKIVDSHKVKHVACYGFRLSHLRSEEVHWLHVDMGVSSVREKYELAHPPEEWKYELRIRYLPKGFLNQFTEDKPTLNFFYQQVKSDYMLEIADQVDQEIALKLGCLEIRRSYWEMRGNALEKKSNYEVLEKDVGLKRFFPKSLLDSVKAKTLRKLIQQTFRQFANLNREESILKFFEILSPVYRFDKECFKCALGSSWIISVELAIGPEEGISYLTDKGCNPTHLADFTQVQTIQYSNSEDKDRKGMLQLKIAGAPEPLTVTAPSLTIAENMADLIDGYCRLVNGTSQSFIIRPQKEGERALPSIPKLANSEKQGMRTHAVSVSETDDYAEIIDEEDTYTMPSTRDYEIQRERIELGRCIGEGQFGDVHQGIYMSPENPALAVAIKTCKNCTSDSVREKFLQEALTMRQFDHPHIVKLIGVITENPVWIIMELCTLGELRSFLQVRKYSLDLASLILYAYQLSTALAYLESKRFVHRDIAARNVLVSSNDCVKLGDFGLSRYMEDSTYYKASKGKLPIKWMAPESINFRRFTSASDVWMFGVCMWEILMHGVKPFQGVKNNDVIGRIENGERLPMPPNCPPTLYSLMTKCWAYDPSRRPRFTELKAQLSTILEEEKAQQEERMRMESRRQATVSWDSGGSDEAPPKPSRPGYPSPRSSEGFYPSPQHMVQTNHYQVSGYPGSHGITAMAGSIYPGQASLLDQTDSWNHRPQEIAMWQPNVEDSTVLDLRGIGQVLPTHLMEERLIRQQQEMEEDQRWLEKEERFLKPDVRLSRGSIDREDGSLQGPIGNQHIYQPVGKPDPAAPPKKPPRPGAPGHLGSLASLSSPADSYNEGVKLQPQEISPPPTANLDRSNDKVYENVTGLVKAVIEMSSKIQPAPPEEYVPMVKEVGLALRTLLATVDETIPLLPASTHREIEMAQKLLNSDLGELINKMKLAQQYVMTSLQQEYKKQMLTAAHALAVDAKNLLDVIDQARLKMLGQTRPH
Chain of Tyrosine-protein kinase Yes (Homo sapiens) (P07947 2-543 limits assumed): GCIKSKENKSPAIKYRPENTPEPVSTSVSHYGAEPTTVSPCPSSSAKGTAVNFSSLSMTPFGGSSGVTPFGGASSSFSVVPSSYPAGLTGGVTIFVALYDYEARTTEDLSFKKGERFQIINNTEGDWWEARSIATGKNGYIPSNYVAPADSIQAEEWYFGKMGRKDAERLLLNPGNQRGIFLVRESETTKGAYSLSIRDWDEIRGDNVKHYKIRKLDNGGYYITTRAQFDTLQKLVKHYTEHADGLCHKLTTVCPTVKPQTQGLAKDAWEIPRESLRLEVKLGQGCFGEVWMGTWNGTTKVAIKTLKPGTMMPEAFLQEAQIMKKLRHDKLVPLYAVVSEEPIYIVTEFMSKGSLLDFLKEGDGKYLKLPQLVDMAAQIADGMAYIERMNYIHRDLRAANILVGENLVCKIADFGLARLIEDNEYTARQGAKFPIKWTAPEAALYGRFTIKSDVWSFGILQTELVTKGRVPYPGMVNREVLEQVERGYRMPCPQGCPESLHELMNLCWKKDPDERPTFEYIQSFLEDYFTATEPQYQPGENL
Chain of Death-associated protein kinase 1 (Homo sapiens) (P53355 whole entry, looked up): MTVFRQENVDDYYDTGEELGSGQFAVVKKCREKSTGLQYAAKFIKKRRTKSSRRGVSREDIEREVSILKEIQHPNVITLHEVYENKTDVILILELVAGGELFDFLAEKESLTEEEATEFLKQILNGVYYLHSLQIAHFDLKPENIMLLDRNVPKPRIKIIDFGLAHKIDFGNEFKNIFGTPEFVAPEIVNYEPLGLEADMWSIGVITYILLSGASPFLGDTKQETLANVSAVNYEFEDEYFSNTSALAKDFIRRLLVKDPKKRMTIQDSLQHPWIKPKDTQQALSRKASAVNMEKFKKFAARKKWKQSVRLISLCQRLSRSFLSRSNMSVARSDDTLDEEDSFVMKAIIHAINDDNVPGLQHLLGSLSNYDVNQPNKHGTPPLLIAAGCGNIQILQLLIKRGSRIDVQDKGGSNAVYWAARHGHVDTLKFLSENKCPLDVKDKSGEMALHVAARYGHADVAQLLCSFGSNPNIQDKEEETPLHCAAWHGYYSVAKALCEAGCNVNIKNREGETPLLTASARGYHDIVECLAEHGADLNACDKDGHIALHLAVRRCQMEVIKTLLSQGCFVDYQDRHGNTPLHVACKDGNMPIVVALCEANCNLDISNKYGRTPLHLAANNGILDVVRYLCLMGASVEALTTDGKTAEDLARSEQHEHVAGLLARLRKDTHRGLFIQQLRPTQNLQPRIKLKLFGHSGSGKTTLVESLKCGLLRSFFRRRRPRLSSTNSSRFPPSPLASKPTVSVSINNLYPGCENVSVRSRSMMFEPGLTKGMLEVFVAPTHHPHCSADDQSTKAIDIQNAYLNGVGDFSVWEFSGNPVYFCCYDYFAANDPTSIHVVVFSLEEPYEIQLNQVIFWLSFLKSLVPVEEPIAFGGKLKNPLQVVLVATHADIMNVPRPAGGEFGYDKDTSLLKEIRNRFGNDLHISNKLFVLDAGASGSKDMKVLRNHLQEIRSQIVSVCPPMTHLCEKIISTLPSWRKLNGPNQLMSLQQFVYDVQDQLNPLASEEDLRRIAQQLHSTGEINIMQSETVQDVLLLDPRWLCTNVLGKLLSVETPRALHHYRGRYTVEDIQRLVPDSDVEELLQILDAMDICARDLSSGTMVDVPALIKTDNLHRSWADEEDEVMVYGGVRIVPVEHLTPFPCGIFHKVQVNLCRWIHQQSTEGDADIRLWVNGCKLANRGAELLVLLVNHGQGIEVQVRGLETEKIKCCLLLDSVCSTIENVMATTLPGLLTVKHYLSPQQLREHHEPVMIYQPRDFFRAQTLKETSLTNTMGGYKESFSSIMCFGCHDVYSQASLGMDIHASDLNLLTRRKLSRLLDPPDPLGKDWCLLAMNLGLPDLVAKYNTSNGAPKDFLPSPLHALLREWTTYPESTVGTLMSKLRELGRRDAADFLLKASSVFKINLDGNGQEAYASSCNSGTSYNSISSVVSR
Chain of MAP/microtubule affinity-regulating kinase 3 (Homo sapiens) (P27448 whole entry, looked up): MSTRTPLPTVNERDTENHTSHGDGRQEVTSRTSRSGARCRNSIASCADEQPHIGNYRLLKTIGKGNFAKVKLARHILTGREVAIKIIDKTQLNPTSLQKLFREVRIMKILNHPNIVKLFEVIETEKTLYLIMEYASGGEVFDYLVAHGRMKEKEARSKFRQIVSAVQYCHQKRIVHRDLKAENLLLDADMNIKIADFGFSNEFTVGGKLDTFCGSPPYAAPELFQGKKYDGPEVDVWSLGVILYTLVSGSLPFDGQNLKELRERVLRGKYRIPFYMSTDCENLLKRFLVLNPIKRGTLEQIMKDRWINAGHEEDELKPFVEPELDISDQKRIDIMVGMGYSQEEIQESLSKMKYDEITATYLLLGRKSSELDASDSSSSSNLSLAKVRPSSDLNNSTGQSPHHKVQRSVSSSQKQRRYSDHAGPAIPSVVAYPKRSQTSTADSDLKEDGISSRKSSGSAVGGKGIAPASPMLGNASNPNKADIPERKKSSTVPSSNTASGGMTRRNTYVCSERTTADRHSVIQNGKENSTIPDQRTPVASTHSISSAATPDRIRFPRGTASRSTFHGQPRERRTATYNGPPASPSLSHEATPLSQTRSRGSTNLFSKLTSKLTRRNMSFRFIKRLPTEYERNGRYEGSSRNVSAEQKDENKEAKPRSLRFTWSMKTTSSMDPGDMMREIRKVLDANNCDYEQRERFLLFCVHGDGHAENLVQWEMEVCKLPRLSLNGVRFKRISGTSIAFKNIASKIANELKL
Chain of Serine/threonine-protein kinase 16 (Homo sapiens) (O75716 whole entry): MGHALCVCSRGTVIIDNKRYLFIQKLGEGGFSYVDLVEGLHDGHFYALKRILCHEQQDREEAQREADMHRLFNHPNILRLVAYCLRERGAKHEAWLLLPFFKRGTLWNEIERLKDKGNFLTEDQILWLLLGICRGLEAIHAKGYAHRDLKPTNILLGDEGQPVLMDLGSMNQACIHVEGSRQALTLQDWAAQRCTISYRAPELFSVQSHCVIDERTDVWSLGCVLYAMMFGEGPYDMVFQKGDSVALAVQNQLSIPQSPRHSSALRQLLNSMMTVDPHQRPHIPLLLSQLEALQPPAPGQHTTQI

For `C=CC(=O)Nc1cc(-n2c(=O)ccc3cnc4ccc(-c5ccc(NS(C)(=O)=O)cc5)cc4c32)ccc1C`, the Activity [1] was 74%, the Activity [2] was 92% and the Activity (RV-1 [3]) was “Active”. The Activity [4] was 97%, the Activity [5] was 99% and the Activity [6] was 91%. The Activity (RV-1 [7]) was “Active”, the Activity [8] was 93% and the Activity [9] was 98%. It also gave an Activity [10] of 98%, an Activity [11] of 79% and an Activity [12] of 83%. For the same compound, the Activity [13] was 84%, the Activity [14] was 92% and the Activity [15] was 86%. The Activity [16] was 86%, the Activity [17] was 64% and the Activity [18] was 98%. For the same compound, the Activity [19] was 96%, the Activity (RV-1 [20]) was “Active” and the Activity [21] was 69%. The Activity [22] was 75%, the Activity [23] was 0.32 and the Activity [24] was 76%. The Activity (RV-1 [25]) was “Active”, the Activity [26] was 92% and the Activity (RV-1 [27]) was “Active”. It also gave an Activity [28] of 84%, an Activity [29] of 96% and an Activity [30] of 79%. For the same compound, the Activity [31] was 91% and the Activity [32] was 84%.
